Molecules are shown by their SMILES. A value given as a limit tells only on which side of the number the result lay.

This assay addresses T1, human TLR7 (Homo sapiens, UniProt Q9NYK1).
T1 construct: host or cells: HEK293 (HEK-Blue hTLR7)
T1 sequence (Q9NYK1 27-1049): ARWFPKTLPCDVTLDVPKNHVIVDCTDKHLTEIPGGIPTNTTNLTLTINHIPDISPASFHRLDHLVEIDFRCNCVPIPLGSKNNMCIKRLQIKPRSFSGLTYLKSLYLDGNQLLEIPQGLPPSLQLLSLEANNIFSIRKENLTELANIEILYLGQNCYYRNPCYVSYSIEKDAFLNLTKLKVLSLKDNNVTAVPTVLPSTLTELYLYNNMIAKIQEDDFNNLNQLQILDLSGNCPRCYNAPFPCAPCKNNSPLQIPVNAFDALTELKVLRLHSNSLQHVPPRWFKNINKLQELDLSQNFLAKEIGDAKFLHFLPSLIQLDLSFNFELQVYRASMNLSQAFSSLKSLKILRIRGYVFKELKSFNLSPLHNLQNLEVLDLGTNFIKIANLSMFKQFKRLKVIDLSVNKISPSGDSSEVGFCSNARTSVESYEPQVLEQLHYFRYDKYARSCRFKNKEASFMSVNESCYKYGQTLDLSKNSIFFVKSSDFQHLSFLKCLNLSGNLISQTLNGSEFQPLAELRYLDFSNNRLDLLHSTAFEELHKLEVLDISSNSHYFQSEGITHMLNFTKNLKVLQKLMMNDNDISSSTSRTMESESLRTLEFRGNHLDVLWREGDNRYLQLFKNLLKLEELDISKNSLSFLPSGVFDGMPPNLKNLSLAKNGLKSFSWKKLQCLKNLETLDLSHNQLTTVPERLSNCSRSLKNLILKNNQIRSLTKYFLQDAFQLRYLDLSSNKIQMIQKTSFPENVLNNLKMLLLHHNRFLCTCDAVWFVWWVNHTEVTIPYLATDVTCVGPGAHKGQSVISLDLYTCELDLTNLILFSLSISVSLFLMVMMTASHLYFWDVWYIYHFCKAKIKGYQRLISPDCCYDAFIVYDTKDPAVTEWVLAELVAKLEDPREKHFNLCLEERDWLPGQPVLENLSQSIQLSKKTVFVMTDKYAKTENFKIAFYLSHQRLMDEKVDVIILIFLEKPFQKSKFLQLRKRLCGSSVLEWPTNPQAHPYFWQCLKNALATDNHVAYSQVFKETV
The experiment in a line: HEK293-Blue-hTLR-7 cells assay. The following applies: HEK293-Blue-hTLR7 cells, R848 stimulation, 20 hrs, SEAP reporter; read-out: HEK/hTLR7 IC50. Format: cell-based. The source says:
HEK293-Blue-hTLR-7 cells assay:
A stable HEK293-Blue-hTLR-7 cell line was purchased from InvivoGen (Cat. #: hkb-htlr7, San Diego, Calif., USA). These cells were originally designed for studying the stimulation of human TLR7 by monitoring the activation of NF-κB. A SEAP (secreted embryonic alkaline phosphatase) reporter gene was placed under the control of the IFN-β minimal promoter fused to five NF-κB and AP-1-binding sites. The SEAP was induced by activating NF-κB and AP-1 via stimulating HEK-Blue hTLR7 cells with TLR7 ligands. Therefore the reporter expression was declined by TLR7 antagonist under the stimulation of a ligand, such as R848 (Resiquimod), for incubation of 20 hrs. The cell culture supernatant SEAP reporter activity was determined using QUANTI-Blue™ kit (Cat. #: rep-qb1, Invivogen, San Diego, Ca, USA) at a wavelength of 640 nm, a detection medium that turns purple or blue in the presence of alkaline phosphatase.
HEK293-Blue-hTLR7 cells were incubated at a density of 250,000-450,000 cells/mL in a volume of 170 μL in a 96-well plate in Dulbecco's Modified Eagle's medium (DMEM) containing 4.5 g/L glucose, 50 U/mL penicillin, […], […], 2 mM L-glutamine, 10% (v/v) heat-inactivated fetal bovine serum with addition of 20 μL test compound in a serial dilution in the presence of final DMSO at 1% and 10 μL of 20 uM R848 in above DMEM, perform incubation under 37° C. in a CO2 incubator for 20 hrs. Then 20 μL of the supernatant from each well was incubated with 180 μL Quanti-blue substrate solution at 37° C. for 2 hrs and the absorbance was read at 620˜655 nm using a spectrophotometer. The signaling pathway that TLR7 activation leads to downstream NF-κB activation has been widely accepted, and therefore similar reporter assay was modified for evaluating TLR7 antagonist.
For the compound `C[C@@H]1CN(c2ccc(C#N)c3ncccc23)C[C@H](CN2CC(n3cc4c(n3)[C@@H](C)CNC4)C2)O1` (single isomer, unassigned) [Example 26], the IC50 was 6 nM.

As for `C[C@@H]1CN(c2ccc(C#N)c3ncccc23)C[C@H](CN2CC(n3ncc4c3CCN[C@H]4C)C2)O1` [Example 22, 5-[(2R,6S)-2-methyl-6-[[3-[(4S)-4-methyl-4,5,6,7-tetrahydropyrazolo[4,3-c]pyridin-1-yl]azetidin-1-yl]methyl]morpholin-4-yl]quinoline-8-carbonitrile], the IC50 was determined as 5 nM.

With `C[C@@H]1CN(c2ccc(C#N)c3ncccc23)C[C@H](CN2CC(n3cc4c(n3)CNCC4)C2)O1` [Example 4, 5-[(2R,6S)-2-methyl-6-[[3-(4,5,6,7-tetrahydropyrazolo[3,4-c]pyridin-2-yl)azetidin-1-yl]methyl]morpholin-4-yl]quinoline-8-carbonitrile], the IC50 came out at 9 nM.

With `C[C@@H]1CN(c2ccc(C#N)c3ncccc23)C[C@H](CN2CC(n3cc4c(n3)CN[C@@H](C)C4)C2)O1` (single isomer, unassigned) [Example 29], the IC50 was determined as 8 nM.

In the case of `C[C@@H]1Cc2nn(C3CN(C[C@H]4CN(c5ccc(C#N)c6ncccc56)C[C@@H](C)O4)C3)cc2CN1` [Example 17, 5-[(2R,6S)-2-methyl-6-[[3-[(6R)-6-methyl-4,5,6,7-tetrahydropyrazolo[4,3-c]pyridin-2-yl]azetidin-1-yl]methyl]morpholin-4-yl]quinoline-8-carbonitrile], the IC50 amounted to 4 nM.

`C[C@@H]1CN(c2ccc(C#N)c3ncccc23)C[C@H](CN2CCC(n3ncc4c3CCNC4)CC2)O1` [Example 35, 5-[(2R,6S)-2-methyl-6-[[4-(4,5,6,7-tetrahydropyrazolo[4,3-c]pyridin-1-yl)-1-piperidyl]methyl]morpholin-4-yl]quinoline-8-carbonitrile]: the IC50 was 5 nM.

Consider `Cc1nn(C2CN(C[C@H]3CN(c4ccc(C#N)c5ncccc45)C[C@@H](C)O3)C2)c2c1CNCC2` [Example 12, 5-[(2R,6S)-2-methyl-6-[[3-(3-methyl-4,5,6,7-tetrahydropyrazolo[4,3-c]pyridin-1-yl)azetidin-1-yl]methyl]morpholin-4-yl]quinoline-8-carbonitrile], for which the IC50 was 15 nM.

`C[C@@H]1CN(c2ccc(C#N)c3ncccc23)C[C@H](CN2CC(n3cc4c(n3)[C@H](C)CNC4)C2)O1` (single isomer, unassigned) [Example 25]: the IC50 turned out to be 4 nM.

For the compound `C[C@@H]1CN(c2ccc(C#N)c3ncccc23)C[C@H](CN2CC(n3cc4c(n3)CN(C)CC4)C2)O1` [Example 5, 5-[(2R,6S)-2-methyl-6-[[3-(6-methyl-5,7-dihydro-4H-pyrazolo[3,4-c]pyridin-2-yl)azetidin-1-yl]methyl]morpholin-4-yl]quinoline-8-carbonitrile], the IC50 is 4 nM.

On to `C[C@@H]1CN(c2ccc(C#N)c3ncccc23)C[C@H](CN2CC(n3ncc4c3[C@H](C)NCC4)C2)O1` (single isomer, unassigned) [Example 32], for which the IC50 is under 3 nM.

`C[C@@H]1Cc2cnn(C3CN(C[C@H]4CN(c5ccc(C#N)c6ncccc56)C[C@@H](C)O4)C3)c2CN1` (single isomer, unassigned) [Example 28]: the IC50 turned out to be 5 nM.

In the case of `C[C@@H]1CN(c2ccc(C#N)c3ncccc23)C[C@H](CN2CC(n3cc4c(n3)[C@@H](C)NCC4)C2)O1` (single isomer, unassigned) [Example 33], the IC50 is 7 nM.

As for `Cc1nn(C2CN(C[C@H]3CN(c4ccc(C#N)c5ncccc45)C[C@@H](C)O3)C2)c2c1CN(C)CC2` [Example 14, 5-[(2S,6R)-2-[[3-(3,5-dimethyl-6,7-dihydro-4H-pyrazolo[4,3-c]pyridin-1-yl)azetidin-1-yl]methyl]-6-methyl-morpholin-4-yl]quinoline-8-carbonitrile], the IC50 amounted to 26 nM.

With `C[C@@H]1CN(c2ccc(C#N)c3ncccc23)C[C@H](CN2CC(n3cc4c(n3)CCN[C@@H]4C)C2)O1` [Example 21, 5-[(2R,6S)-2-methyl-6-[[3-[(4R)-4-methyl-4,5,6,7-tetrahydropyrazolo[4,3-c]pyridin-2-yl]azetidin-1-yl]methyl]morpholin-4-yl]quinoline-8-carbonitrile], the IC50 is 18 nM.

Consider `C[C@@H]1CN(c2ccc(C#N)c3ncccc23)C[C@H](CN2CC(n3ncc4c3CN[C@@H](C)C4)C2)O1` (single isomer, unassigned) [Example 27], for which the IC50 is 6 nM.

With `C[C@@H]1CN(c2ccc(C#N)c3ncccc23)C[C@H](CN2CC(n3ncc4c3CCN[C@@H]4C)C2)O1` [Example 20, 5-[(2R,6S)-2-methyl-6-[[3-[(4R)-4-methyl-4,5,6,7-tetrahydropyrazolo[4,3-c]pyridin-1-yl]azetidin-1-yl]methyl]morpholin-4-yl]quinoline-8-carbonitrile], the IC50 turned out to be 5 nM.

As to `C[C@@H]1CN(c2ccc(C#N)c3ncccc23)C[C@H](CN2CC(n3cc4c(n3)C[C@H](C)NC4)C2)O1` [Example 19, 5-[(2R,6S)-2-methyl-6-[[3-[(6S)-6-methyl-4,5,6,7-tetrahydropyrazolo[4,3-c]pyridin-2-yl]azetidin-1-yl]methyl]morpholin-4-yl]quinoline-8-carbonitrile], the IC50 came out at 19 nM.

In the case of `CCN1CCc2cnn(C3CN(C[C@H]4CN(c5ccc(C#N)c6ncccc56)C[C@@H](C)O4)C3)c2C1` [Example 6, 5-[(2S,6R)-2-[[3-(6-ethyl-5,7-dihydro-4H-pyrazolo[3,4-c]pyridin-1-yl)azetidin-1-yl]methyl]-6-methyl-morpholin-4-yl]quinoline-8-carbonitrile], the IC50 worked out at 12 nM.

For the compound `C[C@@H]1CN(c2ccc(C#N)c3ncccc23)C[C@H](CN2CC(n3cc4c(n3)CCN[C@H]4C)C2)O1` [Example 23, 5-[(2R,6S)-2-methyl-6-[[3-[(4S)-4-methyl-4,5,6,7-tetrahydropyrazolo[4,3-c]pyridin-2-yl]azetidin-1-yl]methyl]morpholin-4-yl]quinoline-8-carbonitrile], the IC50 turned out to be 13 nM.

As to `C[C@@H]1CN(c2ccc(C#N)c3ncccc23)C[C@H](CN2CC(n3ncc4c3[C@@H](C)NCC4)C2)O1` (single isomer, unassigned) [Example 31], the IC50 is under 3 nM.

As to `Cc1c2c(nn1C1CN(C[C@H]3CN(c4ccc(C#N)c5ncccc45)C[C@@H](C)O3)C1)CCNC2` [Example 13, 5-[(2R,6S)-2-methyl-6-[[3-(3-methyl-4,5,6,7-tetrahydropyrazolo[4,3-c]pyridin-2-yl)azetidin-1-yl]methyl]morpholin-4-yl]quinoline-8-carbonitrile], the IC50 worked out at 14 nM.

Regarding `Cc1c2c(nn1C1CN(C[C@H]3CN(c4ccc(C#N)c5ncccc45)C[C@@H](C)O3)C1)CNCC2` [Example 43, 5-[(2R,6S)-2-methyl-6-[[3-(3-methyl-4,5,6,7-tetrahydropyrazolo[3,4-c]pyridin-2-yl)azetidin-1-yl]methyl]morpholin-4-yl]quinoline-8-carbonitrile], the IC50 was 17 nM.

As to `CC(C)N1CCc2cn(C3CN(C[C@H]4CN(c5ccc(C#N)c6ncccc56)C[C@@H](C)O4)C3)nc2C1` [Example 9, 5-[(2S,6R)-2-[[3-(6-isopropyl-5,7-dihydro-4H-pyrazolo[3,4-c]pyridin-2-yl)azetidin-1-yl]methyl]-6-methyl-morpholin-4-yl]quinoline-8-carbonitrile], the IC50 was determined as 12 nM.

Source of the values: US20210300924A1, “5-[6-[[3-(4,5,6,7-TETRAHYDROPYRAZOLO[4,3-C]PYRIDIN-1-YL)AZETIDIN-1-YL]METHYL]MORPHOLIN-4-YL]QUINOLINE-8-CARBONITRILE DERIVATIVES AND SIMILAR COMPOUNDS AS TLR7-9 ANTAGONISTS FOR TREATING SYSTEMIC LUPUS ERYTHEMATOSUS” (Hoffmann-La Roche Inc., priority 2018, published 2021).
